Here are results for ten compounds from ChEMBL document CHEMBL2311480, “Inhibitors of apoptosis in testicular germ cells: synthesis and biological evaluation of some novel IBTs bearing sulfonamide moiety” (2013).

The assay is described as follows: Inhibition of malathion-induced apoptosis in goat testicular germ cells assessed as cell survival at 10 uM (malathion treated control = 41 +/- 6.24%). The class given is functional. The settings on record: Capra hircus; read-out: Survival.
Regarding `NS(=O)(=O)c1ccc2c(c1)sc1nc(-c3ccccc3)cn12`, the viability at 10 µM is 50%.

Consider `Cc1ccc(-c2cn3c(n2)sc2cc(S(N)(=O)=O)ccc23)cc1`, for which the viability at 10 µM turned out to be 64%.

Consider `NS(=O)(=O)c1ccc2c(c1)sc1nc(-c3ccc(F)cc3)cn12`, for which the viability at 10 µM is 43%.

Regarding `NS(=O)(=O)c1ccc2c(c1)sc1nc(-c3ccc(Cl)cc3)cn12`, the viability at 10 µM was found to be 56%.

In the case of `NS(=O)(=O)c1ccc2c(c1)sc1nc(-c3ccc(Br)cc3)cn12`, the viability at 10 µM worked out at 52%.

As for `NS(=O)(=O)c1ccc2c(c1)sc1nc(-c3ccc([N+](=O)[O-])cc3)cn12`, the viability at 10 µM was found to be 39%.

Regarding `NS(=O)(=O)c1ccc2c(c1)sc1nc(-c3cc4ccccc4oc3=O)cn12`, the viability at 10 µM is 46%.

Consider `NS(=O)(=O)c1ccc2c(c1)sc1nc(-c3cc4cc(Cl)ccc4oc3=O)cn12`, for which the viability at 10 µM came to 61%.

As for `NS(=O)(=O)c1ccc2c(c1)sc1nc(-c3cc4cc(Br)ccc4oc3=O)cn12`, the viability at 10 µM turned out to be 48%.

For the compound `CCOC(=O)CC(SP(=S)(OC)OC)C(=O)OCC` (stereo not given) [MALATHION], the viability at 10 µM came to 41%.
